PMC5104480 (PLoS ONE, 2016)
Each block holds one compound with its values, some of them ahead of it.

Tests used:
[1] = biological target: T1, HLMs, UGT1A1, UGT1A6 and UGT1A9 (Homo sapiens, UniProt P22309); settings: HLMs and UGT1A1; substrate chrysoeriol; compared with control
T1 sequence (P22309 26-533): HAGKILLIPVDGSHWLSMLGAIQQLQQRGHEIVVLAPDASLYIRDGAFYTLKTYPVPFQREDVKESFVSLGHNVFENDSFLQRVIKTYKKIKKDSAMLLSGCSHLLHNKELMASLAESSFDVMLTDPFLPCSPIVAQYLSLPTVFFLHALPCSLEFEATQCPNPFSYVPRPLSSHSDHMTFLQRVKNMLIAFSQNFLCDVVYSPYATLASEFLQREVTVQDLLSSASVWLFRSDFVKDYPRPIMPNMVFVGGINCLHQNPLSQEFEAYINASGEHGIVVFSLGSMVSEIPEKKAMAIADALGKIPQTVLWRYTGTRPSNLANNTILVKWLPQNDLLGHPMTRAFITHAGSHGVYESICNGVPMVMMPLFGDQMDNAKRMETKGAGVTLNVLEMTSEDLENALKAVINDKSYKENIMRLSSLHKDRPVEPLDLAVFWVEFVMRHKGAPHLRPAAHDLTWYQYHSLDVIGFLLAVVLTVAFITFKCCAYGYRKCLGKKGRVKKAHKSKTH
Description: (§1) The protein concentrations of the HLMs and expressed UGTs were 0.0021–0.0106 mg protein/mL. All of the incubations were run at 37°C for 30 min, and the way of pretreated and determined samples were as discribed above.

[2] = biological target: T2, HLMs, UGT1A1, UGT1A6 and UGT1A9 (Homo sapiens, UniProt O60656); settings: HLMs and UGT1A9, compared with control
T2 sequence (O60656 26-530): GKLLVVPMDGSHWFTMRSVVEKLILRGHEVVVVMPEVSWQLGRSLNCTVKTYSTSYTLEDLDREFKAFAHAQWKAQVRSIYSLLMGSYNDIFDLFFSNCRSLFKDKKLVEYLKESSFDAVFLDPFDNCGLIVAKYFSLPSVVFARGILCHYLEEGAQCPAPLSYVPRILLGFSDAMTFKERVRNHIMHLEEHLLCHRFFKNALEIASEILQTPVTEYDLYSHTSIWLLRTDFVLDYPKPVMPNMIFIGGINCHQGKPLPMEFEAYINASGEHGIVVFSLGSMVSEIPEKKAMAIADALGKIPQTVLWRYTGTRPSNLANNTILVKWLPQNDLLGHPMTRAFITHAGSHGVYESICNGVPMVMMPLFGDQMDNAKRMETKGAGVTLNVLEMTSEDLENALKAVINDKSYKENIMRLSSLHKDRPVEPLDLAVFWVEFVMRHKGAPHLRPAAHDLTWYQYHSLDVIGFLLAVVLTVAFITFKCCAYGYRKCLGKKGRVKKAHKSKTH
Description: as §1

[3] = system: HeLa cells; experiment: Glucuronide formation in HeLa cells (control); settings: HeLa cells without UGT1A9 (control)
Description: HeLa and HeLa—UGT1A9 cells were seeded into six-well plate at a density of 1.0 × 10^5 cells/well, and were grown using Dulbecco’s modified Eagle’smedium (DMEM) supplemented with 10% fetal bovine serum (FBS). After 3 ~ 4 days of seeding, the cells can be used for the glucuronidation experiments.
Brifely speaking, the cells were incubated at 37°C with loading solution (2 mL). […] The collected samples were mixed with 250 μL acetonitrile containing 25 nM tilianin and then analyzed by UHPLC—MS/MS after centrifugation at 13,000 rpm for 30 min. After the excretion experiment, the cells were washed and selected in 300 μL HBSS buffer, and then the cells were ultrasonicated. After centrifugation at 13,000 rpm for 30 min, the 200 μL supernatant was obtained and mixed with 100 μL acetonitrile containing 25 nM tilianin. The mixture was then centrifuged at 13,000 rpm for 30 min and prepared for subsequent UHPLC—MS/MS analysis.

[4] = system: HepG2 cells; experiment: MTT assay, HepG2 cells, with and without Ko143; assay type: cell-based
Description: The cells were further incubated at 37°C with 5% CO2 for 48 h. […] The supernatants were discarded, and 150 μL of dimethyl sulfoxide was added to each well. The plates were shaken for 10 min at room temperature, and then, the stained formazan product was determined at 570 nm with a multimode plate reader.

[5] = system: A549 cells; experiment: MTT assay, A549 cells, with and without Ko143; assay type: cell-based
Description: The cells were further incubated at 37°C with 5% CO2 for 48 h. The culture medium was removed and replaced with 100 μL 0.5 mg/mL 3-(4, 5-dimethylthiozol-2-yl)-3, 5-dipheryl tetrazolium bromide (MTT) solution and incubated at 37°C for 4 h. The supernatants were discarded, and 150 μL of dimethyl sulfoxide was added to each well. The plates were shaken for 10 min at room temperature, and then, the stained formazan product was determined at 570 nm with a multimode plate reader.

[6] = cited from earlier work
[7] = 10 μM substrate with 5 or 10 μM Ko143, 48 h
[8] = 10 μM substrate with 5 μM Ko143, 48 h
[9] = 10 μM substrate with 10 μM Ko143, 48 h

effect on formation of Chr-4′-G [1]: significantly decrease
Compound: C=CC1=C(C)/C(=C/c2[nH]c(Cc3[nH]c(/C=C4\NC(=O)C(C)=C4C=C)c(C)c3CCC(=O)O)c(CCC(=O)O)c2C)NC1=O [bilirubin]

Compound: Cc1ccc(C(C)C)cc1O [carvacrol]
effect on formation of Chr-7-G ([2]; substrate chrysoeriol): significantly decrease | effect on formation of Dio-3′-G ([2]; substrate diosmetin): significantly decrease

glucuronided metabolites in HeLa cells [3]: did not find
Compound: COc1cc(-c2cc(=O)c3c(O)cc(O)cc3o2)ccc1O [chrysoeriol, 5,7,4′-trihydroxy-3′-methoxyflavone]
change of cytotoxicity when treated with Ko143 [4, 7]: little change | decrease of cell viability compared with substrate alone [5, 8]: 12% | decrease of cell viability compared with substrate alone [5, 9]: 18%

Compound: COc1ccc(-c2cc(=O)c3c(O)cc(O)cc3o2)cc1O [diosmetin, 5,7,3′-trihydroxy-4′-methoxyflavone]
decrease of cell viability compared with substrate alone [4, 8]: 12% | decrease of cell viability compared with substrate alone [4, 9]: 13% | change of cytotoxicity when treated with Ko143 [5, 7]: little change

Compound: acacetin glucuronide
Km [6]: 14.5 µM

Compound: genistein glucuronides
Km [6]: 15.1 µM
